Laboratory results: patent US20230113398A1, “INEXPENSIVE METAL-FREE ORGANIC REDOX FLOW BATTERY (ORBAT) FOR GRID-SCALE STORAGE” (UNIVERSITY OF SOUTHERN CALIFORNIA, priority 2013, published 2023)
Converted amounts (≈) assume the structure as drawn. “And” between values parts separate entries of the source, which are not always exact repeats. Equal values may be shown once. Read-outs that look alike come from different tables or passages of the source.

Key:
[1] = Properties of some common quinones (literature data, Conant and Fieser); format: physicochemical
Text: In a variation as set forth above, the flow battery utilizes a first quinone and a second quinone. Quinones are known to undergo fast electrochemical transformations which are necessary for sustaining high discharge and charge rates in a battery. The facility of electrochemical transformation is characterized by the kinetic parameter termed exchange current density. […] In general, useful quinones are highly soluble in water, chemically stable in strongly acidic/basic solutions, capable of high cell voltage of about 1 V, roundtrip efficiency >80%, and high discharge rate. By selecting a first quinone and a second quinone that are far apart in electrode potential, the cell voltage can be maximized to 1 V. Moreover, the electrode potentials can be modified favorably by substituent groups on the quinones as set forth below. Based on data provided in Table 1 and 2 (J.B. Conant and […]. Am. Chem.

[2] = cited from earlier work
[3] = Cyclic voltammetry in 1 M potassium hydroxide; format: physicochemical
[4] = Rotating disk electrode and cyclic voltammetry on glassy carbon, 1 mM compound in 1 M sulfuric acid; format: physicochemical; settings: for Diffusion Coefficient, (cm^2 s^-1): Levich plot; for Transfer Coefficient, an: Tafel analysis; for Exchange Current Density, (A cm^-2): glassy carbon RDE; for Rate Constant, k°: obtained from exchange current density
Method: Measurement of kinetic parameters and diffusion coefficients was conducted in a three-electrode cell consisting of a rotating glassy carbon disk working electrode, a platinum wire counter electrode, and a mercury/mercuric sulfate reference electrode (E° = +0.65 V). […] The solutions were de-aerated and kept under a blanket of argon gas throughout all the experiments. All measurements were conducted in the potentiodynamic mode (Versastat 300 potentiostat) at a scan rate of 5 mV s^-1 over a range of rotation rates (500 rpm to 3000 rpm). Impedance measurements were also made at each rotation rate. Cyclic voltammetry was conducted on a static glassy carbon electrode at a scan rate of 50 mV s^-1.
(§1) Where n is the number of electrons transferred, F, the Faraday constant, A, electrode area, Do, the diffusion coefficient, v, the kinematic viscosity of the solution and C*, the bulk concentration of the reactants. For n = 2, an active electrode area of 0.1925 cm^2, and a kinematic viscosity of the electrolyte of 0.01 cm^2 s^-1, we were able to evalulate the diffusion coefficient from the slope of the straight line plots in FIG. 11D.
(§2) To determine the kinetic parameters for the charge-transfer process, namely the rate constant and the apparent transfer coeffcient, the logarithm of the kinetic current (after correction for mass-transport losses) was plotted against the observed overpotentials greater than 100 mV, where the Tafel equation is applicable (Eq. 4 and FIG. 11E).
(§3) Where I is the current, Ilim is the limiting current, Iex is the exchange current density, Co and CR are the concentration of the oxidized and reduced species at the surface of the electrode, Co* and CR* are the bulk concentrations of the oxidized and reduced species, α is the transfer coefficient, n is the number of electrons transferred, F is the Faraday constant, E-Erev is the overpotential, R is the gas constant, and T is the temperature. The rate constant, ko , was obtained from the exchange current density (Eq. 5).
as §1, with “plots.” for “plots in FIG. 11D.”
as §2, with “equation derived from the Butler-Volmer Equation” for “equation”, “: […]” for “(Eq. 4 and FIG. 11E).”
as §3, with “using the relationship” for “(Eq. 5).”

[5] = Charge/discharge cycling of full ORBAT flow cells; settings: 25 cm^2 flow cell, 0.2 M solutions, 1 M sulfuric acid, at least 12 cycles
Text: A flow cell was constructed using fuel cell hardware that has graphite end plates (Electrochem Inc.) and an electrode active area of 25 cm^2. The reactant was circulated using peristaltic pumps (Masterflex) at a flow rate of approximately 0.5-1.0 liter min^-1. Membrane electrode assemblies (MEA) needed for the cell were fabricated in house using procedures similar to those previously reported for direct methanol fuel cells. (G. K. S. Prakash, M. C. Smart, Q. J. Wang, A. Atti, V. Pleynet, B. Yang, K. McGrath, G. A. Olah, S. R. Narayanan, W. Chun, T. Valdez, S. Surampudi, J. Fluorine Chemistry, 125, 1217 (2004); the entire disclosure of which is hereby incorporated by reference). Specifically, two sheets of carbon paper (Toray 030- non-teflonized) were coated with an ink containing 0.1 g of Vulcan XC-72 carbon black and 0.3 g of NAFION®. The coated electrodes were hot pressed with a NAFION® 117 membrane to form a MEA. All full cell experiments were carried out at 23° C. Two glass containers served as reservoirs for the solutions of the redox couples. An argon flow was maintained above these solutions to avoid reaction of the redox couples with oxygen. The current-voltage characteristics of the cells were measured at various states of charge. Charge/discharge studies were carried out under constant current conditions. […]

[6] = Cyclic voltammetry in mixed solvent (DMF/water); format: physicochemical; settings: DMF/water (80% DMF/20%Water for TYLENOL)
[7] = in water, 25° C; cited from earlier work
[8] = Table 5, MSE E°=+0.65 V, 1 M sulfuric acid
[9] = water, aqueous solubility limit, aqueous
[10] = Table 7, listed as Anthraquinone sulfonic acid

Compound: O=C1C=CC=CC1=O [1,2-benzoquinone (ortho), 1,2-benzoquinone]
- electrode potential higher relative to 1,4-benzoquinone (para-quinone) [1]: approximately 85 mV
- Electrode Potential vs. NHE, V [2]: 0.786 V

Compound: O=C1c2cccc(O)c2C(=O)c2c(O)cccc21 [1,8-dihydroxy anthraquinone, 1,8-dihydroxy anthraquinone]
- reversible peak potential vs. MMO [3]: approximately -0.60 V

Compound: O=C1c2ccccc2C(=O)c2ccccc21 [9,10-anthraquinone, reference compound]
- Standard Reduction Potentials: E°(formal) Measured ([4]; 1 M sulfuric acid): Insoluble
- Standard Reduction Potentials: Experimental (E½ values) vs. NHE ([4]; 1 M sulfuric acid): Insoluble
- Electrode Potential vs. NHE, V [2]: 0.157 V

Compound: O=C1c2ccc(S(=O)(=O)O)cc2C(=O)c2ccc(S(=O)(=O)O)cc21 [Anthraquinone 2,6-disulfonic acid, anthraquinone-2,6-disulfonic acid]
- charge-discharge cycling stability (capacity change) [5]: charge-discharge cycling stability similar to AQS
- Standard Reduction Potentials: E°(formal) Measured ([4]; 1 M sulfuric acid): 0.19
- kinetic reversibility from cyclic voltammograms ([4]; 1 M sulfuric acid, glassy carbon): less kinetically reversible than AQS
- Diffusion Coefficient, (cm^2 s^-1) ([4]; Table 5, 1 M sulfuric acid): 3.40E-6 cm^2 s^-1
- E½ vs. MSE, Volt [4, 8]: -0.60 Volt
- Transfer Coefficient, an ([4]; Table 5): 0.426
- Exchange Current Density, (A cm^-2) ([4]; Table 5, 1 M sulfuric acid): 2.97E-6 A cm^-2
- Rate Constant, k° ([4]; Table 5): 0.000152 cm/s
- Diffusion Coefficient (cm2/sec) ([4]; Table 7): 4.04E-6 cm2/sec
- Exchange Current density (A/cm^2) ([4]; Table 7): 1.81E-6 A/cm^2
- E½ vs. MSE, Volt ([4]; Table 7, 1 M sulfuric acid): -0.58 Volt
- Standard Reduction Potentials: Experimental (E½ values) vs. NHE ([4]; 1 M sulfuric acid): 0.05
- reversible peak potential vs. MMO [3]: about -0.35 V
- solubility (Solubility; Solubility, Table 5): 500 mM (≈ 184 mg/mL)
- solubility (Solubility; [9]): ~500 mM (≈ 184 mg/mL)

Compound: O=C1c2ccccc2C(=O)c2cc(S(=O)(=O)O)ccc21 [Anthraquinone-2-sulfonic acid, anthraquinone-2-sulfonic acid]
- reversibility of the electrochemistry [6]: reversible
- Standard Reduction Potentials: E°(formal) Measured ([4]; 1 M sulfuric acid): 0.15
- Diffusion Coefficient, (cm^2 s^-1) ([4]; Table 5, 1 M sulfuric acid): 3.71E-6 cm^2 s^-1
- E½ vs. MSE, Volt [4, 8]: -0.52 Volt
- Transfer Coefficient, an ([4]; Table 5): 0.677
- Exchange Current Density, (A cm^-2) ([4]; Table 5, 1 M sulfuric acid): 1.96E-5 A cm^-2
- Rate Constant, k° ([4]; Table 5): 0.000225 cm/s
- Diffusion Coefficient (cm2/sec) ([4]; Table 7): 3.35E-6 cm2/sec
- Exchange Current density (A/cm^2) ([4]; Table 7): 1.95E-5 A/cm^2
- E½ vs. MSE, Volt ([4]; Table 7, 1 M sulfuric acid): -0.52 Volt
- Diffusion Coefficient (cm2/sec) [4, 10]: 3.18E-6 cm2/sec and 3.35E-6 cm2/sec
- Exchange Current density (A/cm^2) [4, 10]: 1.95E-5 A/cm^2 and 2.91E-5 A/cm^2
- Standard Reduction Potentials: Experimental (E½ values) vs. NHE ([4]; 1 M sulfuric acid): 0.13
- solubility (Solubility; DMF/water, aqueous with cosolvent or surfactant or cyclodextrin, solubility in DMF/water): 700 mM (≈ 202 mg/mL)
- solubility (Solubility; Solubility, Table 5): 200 mM (≈ 57.7 mg/mL)
- solubility (Solubility; Solubility, Table 7): 200 mM (≈ 57.7 mg/mL)
- solubility (Solubility; [9]): 200 mM (≈ 57.7 mg/mL)

Compound: CC(=O)Nc1ccc(O)cc1 [TYLENOL®, reference compound]
- reversibility of the electrochemistry [6]: DMF does not enhance the reversibility

Compound: O=C1C(=O)C(Cl)=C(Cl)C(Cl)=C1Cl [Tetrachloro-1,2-benzoquinone]
- Electrode Potential vs. NHE, V [2]: 0.823 V

Compound: O=C1C=C(S(=O)(=O)O)C=C(S(=O)(=O)O)C1=O [benzoquinone disulfonic acid]
- solubility [7]: 1700 mM (≈ 456 mg/mL)

Compound: O=C1C=CC(=O)C=C1 [benzoquinone]
- solubility [7]: 100 mM (≈ 10.8 mg/mL)

Compound: anthraquinone-2-sulfonic acid salt
- reversible peak potential vs. MMO [3]: about -0.4 V
